Test results reported in ChEMBL document CHEMBL1131349, “4-[(1H-imidazol-4-yl) methyl] benzamidines and benzylamidines: novel antagonists of the histamine H3 receptor” (Bioorg Med Chem Lett, 1998).

Tested on: Cavia porcellus
Test: In vivo antihistaminic (Histamine H3) activity was determined in guinea pig
Assay type: functional
Settings: not given

Q: With N=C(NCc1ccc(Cl)cc1)c1ccc(Cc2c[nH]cn2)cc1 as the compound, how does the ED50 read?
A: The ED50 was 0.3 mg/kg.

Q: S=C(NC1CCCCC1)N1CCC(c2cnc[nH]2)CC1 [THIOPERAMIDE] was tested. Which ED50 did it give?
A: Its ED50 is 0.4 mg/kg.

Q: With N=C(Cc1ccc(Cc2c[nH]cn2)cc1)NCc1ccc(Cl)cc1 as the compound, how does the ED50 read?
A: Its ED50 is 0.3 mg/kg.

Tested on: Cavia porcellus
Test: Percent inhibition of histamine H3 mediated antihistaminic activity in guinea pig was determined in vivo
Assay type: functional
Settings: not given

Q: How did the Inhibition turn out when N=C(N)c1ccc(Cc2c[nH]cn2)cc1 was run?
A: Its Inhibition is 33%.

Molecular target: Histamine H3 receptor (Cavia porcellus) (UniProt Q9JI35)
Sequence (Q9JI35 whole entry): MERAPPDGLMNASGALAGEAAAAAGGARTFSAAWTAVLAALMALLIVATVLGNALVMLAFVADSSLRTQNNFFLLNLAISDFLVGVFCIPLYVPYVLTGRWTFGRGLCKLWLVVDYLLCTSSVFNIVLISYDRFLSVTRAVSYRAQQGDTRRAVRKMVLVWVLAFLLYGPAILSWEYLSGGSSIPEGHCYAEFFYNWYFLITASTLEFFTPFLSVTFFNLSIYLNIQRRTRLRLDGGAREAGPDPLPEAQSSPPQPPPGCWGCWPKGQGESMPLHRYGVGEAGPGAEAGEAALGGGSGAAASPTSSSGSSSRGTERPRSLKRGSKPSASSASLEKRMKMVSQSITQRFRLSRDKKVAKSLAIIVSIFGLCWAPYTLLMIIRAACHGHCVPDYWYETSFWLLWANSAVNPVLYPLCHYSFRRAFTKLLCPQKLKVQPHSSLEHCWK
Test: Compound was tested for inhibition of N-alpha-methylhistamine binding to histamine H3 receptor in guinea pig brain membranes
Assay type: cell membranes
Settings: Membrane, concentration not given here

Q: Which inhibition does the source give for N=C(N)c1ccc(-c2c[nH]cn2)cc1 here?
A: Its inhibition is 49%.

Q: N=C(NCc1ccncc1)c1ccc(Cc2c[nH]cn2)cc1 was tested. Which inhibition did it give?
A: Its inhibition is 44%.

Molecular target: Histamine H3 receptor (Cavia porcellus, UniProt Q9JI35)
Sequence (Q9JI35 whole entry): as above
Test: Inhibition of N-alpha-methylhistamine binding to histamine H3 receptor of guinea pig brain membranes
Settings: not given

Q: With N=C(CCc1ccc(Cc2cnc[nH]2)cc1)NCc1ccc(Cl)cc1 as the compound, how does the Ki read?
A: Its Ki is 175 nM.

Q: For N=C(NCc1ccc(Cl)cc1)c1ccc(Cc2c[nH]cn2)cc1, which Ki is on record?
A: The Ki was 16 nM.

Q: N=C(N)c1cccc(-c2c[nH]cn2)c1 was tested. Which Ki did it give?
A: The Ki was 350 nM.

Q: For N=C(N)CCCc1c[nH]cn1, which Ki is on record?
A: The Ki was 1.2 nM.

Q: How did the Ki turn out when N=C(N)c1ccc(CCc2cnc[nH]2)cc1 was run?
A: Its Ki is 165 nM.

Q: For S=C(NC1CCCCC1)N1CCC(c2cnc[nH]2)CC1 [THIOPERAMIDE], which Ki is on record?
A: Its Ki is 7.3 nM.

Q: Which Ki does the source give for COc1ccc(C/N=C(\N)c2ccc(Cc3c[nH]cn3)cc2)cc1 here?
A: The Ki was 513 nM.
